For 63 compounds, IC50 results are on record in US8338465B2, “Cyclic carboxylic acid rhodanine derivatives for the treatment and prevention of tuberculosis” (priority 2006, dated 2012).

This experiment addresses T1, dihydrolipoamide acyltransferase (DlaT) (Mycobacterium tuberculosis, UniProt P9WIS7).
T1 sequence (P9WIS7 1-553): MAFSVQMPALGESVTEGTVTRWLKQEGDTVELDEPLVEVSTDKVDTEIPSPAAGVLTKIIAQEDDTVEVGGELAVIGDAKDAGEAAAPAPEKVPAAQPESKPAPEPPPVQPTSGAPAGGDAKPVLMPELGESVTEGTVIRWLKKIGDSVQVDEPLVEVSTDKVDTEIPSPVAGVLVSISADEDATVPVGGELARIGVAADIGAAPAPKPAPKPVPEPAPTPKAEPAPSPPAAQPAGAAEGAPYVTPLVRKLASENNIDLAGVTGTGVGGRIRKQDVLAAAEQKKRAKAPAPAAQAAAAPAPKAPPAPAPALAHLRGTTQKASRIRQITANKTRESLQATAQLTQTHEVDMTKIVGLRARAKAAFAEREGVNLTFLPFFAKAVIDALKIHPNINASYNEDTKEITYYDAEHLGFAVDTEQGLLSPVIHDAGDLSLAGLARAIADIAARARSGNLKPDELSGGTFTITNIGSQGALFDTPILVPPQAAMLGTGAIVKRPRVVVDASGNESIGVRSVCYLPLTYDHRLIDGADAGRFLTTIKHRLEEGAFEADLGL
The experiment can be described thus: DlaT inhibition (Dlat IC50); DTNB peroxidase assay with Lpd, DlaT and AhpD. To be noted: Table 1, Compounds A1 to A294; read-out: Dlat IC50 category. It counts as biochemical.
Consider `Cc1ccc(-c2ccc(C=C3SC(=S)N(c4cccc(C(=O)O)c4)C3=O)o2)c(F)c1` [Compound A150], for which the IC50 (commonly the midpoint of a concentration-inhibition curve) lay in the range of 11 to 40 µM.

`Cc1ccc(-c2ccc(C=C3SC(=S)N(c4cc(C(=O)O)ccc4F)C3=O)o2)c(F)c1` [Compound A151]: the IC50 is under 10 µM.

As to `COc1ccc(-c2ccc(C=C3SC(=S)N(c4cccc(C(=O)O)c4)C3=O)o2)cc1` [Compound A152], the IC50 was 11 to 40 µM.

As for `O=C(O)c1cccc(N2C(=O)C(=Cc3ccc(-c4ccc(F)cc4F)o3)SC2=S)c1` [Compound A153], the IC50 was under 10 µM.

For the compound `O=C(O)c1ccc(F)c(N2C(=O)C(=Cc3ccc(-c4ccc(F)cc4F)o3)SC2=S)c1` [Compound A154], the IC50 is under 10 µM.

Regarding `Cc1ccc(-c2ccc(C=C3SC(=S)N(c4cccc(C(=O)O)c4)C3=O)o2)c(C)c1` [Compound A155], the IC50 is 11 to 40 µM.

For the compound `Cc1ccc(-c2ccc(C=C3SC(=S)N(c4cc(C(=O)O)ccc4F)C3=O)o2)c(C)c1` [Compound A156], the IC50 is under 10 µM.

In the case of `CC(C)(C)OC(=O)Nc1ccccc1-c1ccc(C=C2SC(=S)N(c3cccc(C(=O)O)c3)C2=O)o1` [Compound A157], the IC50 is over 41 µM.

As for `Nc1ccccc1-c1ccc(C=C2SC(=S)N(c3cccc(C(=O)O)c3)C2=O)o1` [Compound A158], the IC50 is over 41 µM.

As to `COc1ccc(-c2ccc(C=C3SC(=S)N(c4cccc(C(=O)O)c4)C3=O)o2)c(C)c1` [Compound A159], the IC50 lay in the range of 11 to 40 µM.

For the compound `COc1ccc(-c2ccc(C=C3SC(=S)N(c4cc(C(=O)O)ccc4F)C3=O)o2)c(C)c1` [Compound A160], the IC50 is under 10 µM.

Regarding `Cc1ccccc1-c1cccc(C=C2SC(=S)N(c3cc(C(=O)O)ccc3F)C2=O)n1` [Compound A161], the IC50 is under 10 µM.

As to `O=C(O)c1cccc(N2C(=O)C(=Cc3ccc(-c4ccccc4O)o3)SC2=S)c1` [Compound A162], the IC50 is under 10 µM.

For `O=C(O)c1ccc(F)c(N2C(=O)C(=Cc3ccc(-c4ccccc4O)o3)SC2=S)c1` [Compound A163], the IC50 was under 10 µM.

With `CC(C)(C)OC(=O)Nc1ccccc1-c1ccc(C=C2SC(=S)N(c3cc(C(=O)O)ccc3F)C2=O)o1` [Compound A164], the IC50 was in the range of 11 to 40 µM.

Consider `Cc1ccc(-c2ccc(C=C3SC(=S)N(c4cc(C(=O)O)ccc4F)C3=O)o2)cc1` [Compound A165], for which the IC50 is under 10 µM.

Consider `COc1ccc(-c2ccc(C=C3SC(=S)N(c4cc(C(=O)O)ccc4F)C3=O)o2)cc1` [Compound A166], for which the IC50 is under 10 µM.

On to `COc1ccc(-c2ccc(C=C3SC(=S)N(c4cccc(C(=O)O)c4)C3=O)o2)c(OC)c1` [Compound A167], for which the IC50 was under 10 µM.

Turning to `COc1ccc(-c2ccc(C=C3SC(=S)N(c4cc(C(=O)O)ccc4F)C3=O)o2)c(OC)c1` [Compound A168], the IC50 is under 10 µM.

For `Cc1cc(Cl)ccc1-c1ccc(C=C2SC(=S)N(c3cccc(C(=O)O)c3)C2=O)o1` [Compound A169], the IC50 was under 10 µM.

In the case of `Cc1cc(Cl)ccc1-c1ccc(C=C2SC(=S)N(c3cc(C(=O)O)ccc3F)C2=O)o1` [Compound A170], the IC50 is under 10 µM.

In the case of `Cc1cccc(C)c1-c1ccc(C=C2SC(=S)N(c3cccc(C(=O)O)c3)C2=O)o1` [Compound A171], the IC50 lay within 11 to 40 µM.

On to `Cc1cccc(C)c1-c1ccc(C=C2SC(=S)N(c3cc(C(=O)O)ccc3F)C2=O)o1` [Compound A172], for which the IC50 is under 10 µM.

As for `Cc1ccccc1-c1cccc(C=C2SC(=S)N(c3cccc(C(=O)O)c3)C2=O)c1` [Compound A173], the IC50 was 11 to 40 µM.

`Cc1ccccc1-c1cccc(C=C2SC(=S)N(c3cc(C(=O)O)ccc3F)C2=O)c1` [Compound A174]: the IC50 is under 10 µM.

Turning to `COc1cc(F)ccc1-c1ccc(C=C2SC(=S)N(c3cccc(C(=O)O)c3)C2=O)o1` [Compound A175], the IC50 is under 10 µM.

On to `COc1cc(F)ccc1-c1ccc(C=C2SC(=S)N(c3cc(C(=O)O)ccc3F)C2=O)o1` [Compound A176], for which the IC50 was under 10 µM.

As to `COc1ccc(-c2ccc(C=C3SC(=S)N(c4cccc(C(=O)O)c4)C3=O)o2)cc1F` [Compound A177], the IC50 is under 10 µM.

Turning to `COc1ccc(-c2ccc(C=C3SC(=S)N(c4cc(C(=O)O)ccc4F)C3=O)o2)cc1F` [Compound A178], the IC50 is under 10 µM.

Regarding `O=C(O)c1cccc(N2C(=O)C(=Cc3ccc(-c4ccccc4OCc4ccccc4)o3)SC2=S)c1` [Compound A179], the IC50 was under 10 µM.

Take `O=C(O)c1ccc(F)c(N2C(=O)C(=Cc3ccc(-c4ccccc4OCc4ccccc4)o3)SC2=S)c1` [Compound A180]: the IC50 is under 10 µM.

`Cc1cc(C)c(-c2ccc(C=C3SC(=S)N(c4cc(C(=O)O)ccc4F)C3=O)o2)c(C)c1` [Compound A181]: the IC50 was under 10 µM.

On to `Cc1cc(N(C)C)ccc1-c1ccc(C=C2SC(=S)N(c3cccc(C(=O)O)c3)C2=O)o1` [Compound A182], for which the IC50 was under 10 µM.

`Cc1cc(N(C)C)ccc1-c1ccc(C=C2SC(=S)N(c3cc(C(=O)O)ccc3F)C2=O)o1` [Compound A183]: the IC50 lay in the range of 11 to 40 µM.

Consider `Cc1cc(C)c(-c2ccc(C=C3SC(=S)N(c4cccc(C(=O)O)c4)C3=O)o2)c(C)c1` [Compound A184], for which the IC50 lay in the range of 11 to 40 µM.

As to `CSc1ccccc1-c1ccc(C=C2SC(=S)N(c3cccc(C(=O)O)c3)C2=O)o1` [Compound A185], the IC50 was under 10 µM.

Take `CSc1ccccc1-c1ccc(C=C2SC(=S)N(c3cc(C(=O)O)ccc3F)C2=O)o1` [Compound A186]: the IC50 is under 10 µM.

Turning to `Cc1ccccc1-c1ccc(C=C2SC(=S)N(c3cccc(C(=O)O)c3)C2=O)s1` [Compound A187], the half-inhibitory concentration (IC50) lay in the range of 11 to 40 µM.

`Cc1ccccc1-c1ccc(C=C2SC(=S)N(c3cc(C(=O)O)ccc3F)C2=O)s1` [Compound A188]: the IC50 is under 10 µM.

As to `O=C(O)c1cccc(N2C(=O)C(=Cc3ccc(-c4ccccc4Cl)s3)SC2=S)c1` [Compound A189], the IC50 is under 10 µM.

For `O=C(O)c1ccc(F)c(N2C(=O)C(=Cc3ccc(-c4ccccc4Cl)s3)SC2=S)c1` [Compound A190], the IC50 was under 10 µM.

With `CN(C)c1ccc(-c2ccc(C=C3SC(=S)N(c4cc(C(=O)O)ccc4F)C3=O)o2)cc1` [Compound A191], the concentration for half-maximal inhibition (IC50) was under 10 µM.

As for `O=C(O)c1cccc(N2C(=O)C(=Cc3ccccc3-c3ccccc3OCc3ccccc3Cl)SC2=S)c1` [Compound A192], the half-inhibitory concentration (IC50) is 11 to 40 µM.

In the case of `O=C(O)c1cccc(N2C(=O)C(=Cc3ccc(-c4ccccc4Oc4ccccc4)o3)SC2=S)c1` [Compound A193], the IC50 was under 10 µM.

Regarding `O=C(O)c1ccc(F)c(N2C(=O)C(=Cc3ccc(-c4ccccc4Oc4ccccc4)o3)SC2=S)c1` [Compound A194], the IC50 was under 10 µM.

Regarding `O=C(O)c1cccc(N2C(=O)C(=Cc3ccc(-c4ccccc4F)s3)SC2=S)c1` [Compound A195], the IC50 fell in the range of 11 to 40 µM.

Take `O=C(O)c1cccc(N2C(=O)C(=Cc3ccc(-c4ccccc4F)s3)SC2=S)c1` [Compound A196]: the IC50 is under 10 µM.

For the compound `O=C(O)c1ccc(F)c(N2C(=O)C(=Cc3ccccc3-c3ccccc3OCc3ccccc3Cl)SC2=S)c1` [Compound A197], the IC50 is under 10 µM.

For `Cc1cccc(C)c1-c1ccc(C=C2SC(=S)N(c3cccc(C(=O)O)c3)C2=O)o1` [Compound A198], the IC50 was under 10 µM.

In the case of `O=C(O)c1cccc(N2C(=O)C(=Cc3ccc(-c4ccc(C(F)(F)F)cc4)o3)SC2=S)c1` [Compound A200], the IC50 was under 10 µM.

For `O=C(O)c1ccc(F)c(N2C(=O)C(=Cc3ccc(-c4ccc(C(F)(F)F)cc4)o3)SC2=S)c1` [Compound A201], the IC50 is under 10 µM.

Turning to `O=C(O)c1cccc(N2C(=O)C(=Cc3ccc(-c4cccc(-c5ccccc5)c4)o3)SC2=S)c1` [Compound A202], the IC50 is under 10 µM.

Take `O=C(O)c1ccc(F)c(N2C(=O)C(=Cc3ccc(-c4cccc(-c5ccccc5)c4)o3)SC2=S)c1` [Compound A203]: the half-maximal inhibitory concentration (IC50) is under 10 µM.

As to `CC(=O)Nc1ccc(-c2ccc(C=C3SC(=S)N(c4cccc(C(=O)O)c4)C3=O)o2)cc1` [Compound A204], the IC50 was under 10 µM.

Turning to `CC(=O)Nc1ccc(-c2ccc(C=C3SC(=S)N(c4cc(C(=O)O)ccc4F)C3=O)o2)cc1` [Compound A205], the IC50 was under 10 µM.

In the case of `CC(=O)c1ccc(-c2ccc(C=C3SC(=S)N(c4cccc(C(=O)O)c4)C3=O)o2)cc1` [Compound A206], the IC50 was under 10 µM.

Turning to `CC(=O)c1ccc(-c2ccc(C=C3SC(=S)N(c4cc(C(=O)O)ccc4F)C3=O)o2)cc1` [Compound A207], the IC50 is under 10 µM.

On to `O=C(O)c1ccc(F)c(N2C(=O)C(=Cc3ccc(-c4ccccc4F)o3)SC2=S)c1` [Compound A208], for which the IC50 was 11 to 40 µM.

As for `O=C(O)c1cccc(N2C(=O)C(=Cc3ccc(-c4cccc(CO)c4)o3)SC2=S)c1` [Compound A209], the IC50 was under 10 µM.

For `O=C(O)c1ccc(F)c(N2C(=O)C(=Cc3ccc(-c4cccc(CO)c4)o3)SC2=S)c1` [Compound A210], the IC50 was under 10 µM.

Consider `O=C(O)c1cccc(N2C(=O)C(=Cc3ccc(-c4ccc(F)cc4)o3)SC2=S)c1` [Compound A211], for which the IC50 was under 10 µM.

In the case of `O=C(O)c1ccc(F)c(N2C(=O)C(=Cc3ccc(-c4ccc(F)cc4)o3)SC2=S)c1` [Compound A212], the IC50 was under 10 µM.

As to `CCOc1ccc(-c2ccc(C=C3SC(=S)N(c4cccc(C(=O)O)c4)C3=O)o2)cc1` [Compound A217], the IC50 was in the range of 11 to 40 µM.
